Columns and labels:
[1] = Modulation of GP6 in human platelets reduction in collagen-induced platelet aggregation preincubated for 20 mins followed by collagen stimulation
[2] = Modulation of GP6 in human platelets assessed as reduction in convulxin-induced platelet aggregation
[3] = Inhibition of GP6 in human whole blood assessed as protein-mediated platelet aggregation preincubated for 15 mins followed by collagen stimulation and measured for 10 mins by multiple electrode aggregometry
Platelet glycoprotein VI = biological target: T1, Platelet glycoprotein VI (Homo sapiens, UniProt Q9HCN6); assay: Inhibition of GP6 in human whole blood assessed as protein-mediated platelet aggregation preincubated for 15 mins followed by collagen stimulation and measured for 10 mins by multiple electrode aggregometry
T1 sequence (Q9HCN6 whole entry): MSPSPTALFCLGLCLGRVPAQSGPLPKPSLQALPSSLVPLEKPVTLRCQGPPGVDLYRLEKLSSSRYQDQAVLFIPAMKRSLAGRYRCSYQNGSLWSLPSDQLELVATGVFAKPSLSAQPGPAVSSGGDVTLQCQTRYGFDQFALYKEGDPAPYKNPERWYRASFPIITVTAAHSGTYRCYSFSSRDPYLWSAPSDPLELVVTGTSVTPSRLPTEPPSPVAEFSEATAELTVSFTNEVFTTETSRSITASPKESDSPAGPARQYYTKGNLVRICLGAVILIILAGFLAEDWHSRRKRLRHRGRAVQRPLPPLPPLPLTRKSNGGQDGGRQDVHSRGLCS

[4] = Antagonist activity at GP6 in human platelet assessed as reduction in CRP-induced platelet-aggregation preincubated for 10 mins followed by collagen stimulation by aggregometry
[5] = Antagonist activity at GP6 in human platelet assessed as reduction in collagen-induced platelet-aggregation preincubated for 10 mins followed by collagen stimulation by aggregometry

Compound: Cc1cccc(Nc2nc(N[C@@H]3CCCC[C@@H]3N)ncc2C(N)=O)c1
- IC50 [1]: 570 nM
- IC50 [2]: 31 nM

Compound: C=CC(=O)N1CCC([C@@H]2CCNc3c(C(N)=O)c(-c4ccc(Oc5ccccc5)cc4)nn32)CC1 (single isomer, unassigned) [US9447106, 27b (peak 2)]
- IC50 [3]: 510 nM

Compound: C/C=C/C(=O)N1CCC[C@H]1c1nc(-c2ccc(C(=O)Nc3ccccn3)cc2)c2c(N)nccn12 [ACP-196]
- IC50 (Platelet glycoprotein VI): 1210 nM

Compound: C=C1C(=O)[C@@]23[C@H](O)C[C@@H]4C(C)(C)C(=O)CC[C@@]4(C)[C@@H]2CC[C@@H]1[C@H]3O [Glaucocalyxin A]
- IC50 [4]: 2 nM
- IC50 [5]: 21 nM

Compound: C=CC(=O)N1CCC[C@@H](n2nc(-c3ccc(Oc4ccccc4)cc3)c3c(N)ncnc32)C1 [IBRUTINIB]
- IC50 [3]: 120 nM

Compound: CC#CC(=O)N1CC[C@@H](n2c(=O)n(-c3ccc(Oc4ccccc4)cc3)c3c(N)ncnc32)C1 [US9199997, 9]
- IC50 [3]: 1200 nM

Compound: C=CC(=O)N1CCC(CNc2ncnc(N)c2-c2ccc(Oc3ccccc3)cc2)CC1 [US9580449, Example A39]
- IC50 [3]: 5840 nM
